Structures can show the parent of a compound that is named as a salt. Where two headings read alike, the source gives them in different places. Numbered stars: 1 amine (or outer) side, 2 acyl side, 3 side chain; on linkers, the order of the positions; unused ones are H or OH. Bridge positions count the residues as written; N and C are the ends. Square brackets hold non-standard residues; d marks the D form. Peptide text beside a SMILES is read from it. * marks the point of attachment. pTerphenylCO(4''-OnC5H11) = CCCCCOc1ccc(-c2ccc(-c3ccc(C(=O)*)cc3)cc2)cc1; Orn(4R-OH,5R-OH) = O=C([C@H](C[C@@H](O)[C@@H](O)N[*:3])N[*:1])[*:2]; Tetradecanoyl(10R,12S-Me2) = CC[C@H](C)C[C@H](C)CCCCCCCCC(=O)*; hTyr(3S-OH,4S-OH) = N[C@H](C(=O)O)[C@H](O)[C@@H](O)c1ccc(O)cc1; Pro(3S-OH,4S-Me) = C[C@H]1CN[C@H](C(=O)O)[C@H]1O; Gln(3R-OH) = NC(=O)C[C@@H](O)[C@H](N)C(=O)O; Pro(3S-OH) = O=C(O)[C@H]1NCC[C@@H]1O; Hyp = O=C(O)[C@@H]1C[C@@H](O)CN1
Biological target: binding of recombinant, trimeric SARS-CoV-2 spike protein to recombinant human ACE2 (Severe acute respiratory syndrome coronavirus 2, UniProt P0DTC2, K986P/R682G/R683S/R685S/V987P)
Assay: biochemical
Set-up: species or system SARS-CoV-2 / human

Compound | % Inhibition [%] | further results
CO[C@H]1C[C@H](O[C@@H]2/C(C)=C/C[C@@H]3C[C@@H](C[C@]4(CC[C@H](C)[C@@H](C5CCCCC5)O4)O3)OC(=O)[C@@H]3C=C(C)/C(=N/O)[C@H]4OC/C(=C\C=C\[C@@H]2C)[C@]43O)O[C@@H](C)[C@@H]1O [Selamectin] | 97 | 
CC[C@@H]([C@H](C)O)n1ncn(-c2ccc(N3CCN(c4ccc(OC[C@@H]5CO[C@@](Cn6cncn6)(c6ccc(F)cc6F)C5)cc4)CC3)cc2)c1=O [Posaconazole] | 97 | 
COC(=O)N[C@H](C(=O)N1CCC[C@H]1c1nc(-c2ccc3c(c2)O[C@@H](c2ccccc2)n2c-3cc3cc(-c4c[nH]c([C@@H]5CCCN5C(=O)[C@@H](NC(=O)OC)C(C)C)n4)ccc32)c[nH]1)C(C)C [Elbasvir] | 100 | 
CCOC(=O)c1c(CSc2ccccc2)n(C)c2cc(Br)c(O)c(CN(C)C)c12.Cl [Arbidol HCl] | 95 | 
NC1CCN(c2nc3c(cc2F)c(=O)c(C(=O)O)cn3-c2ccc(F)cc2F)C1 (centres unmarked) [Tosufloxacin (P-Toluenesulfonic Acid), Tosufloxacin] | 97 | 
CO[C@H]1C[C@H](O[C@H]2[C@H](C)O[C@@H](O[C@@H]3/C(C)=C/C[C@@H]4C[C@@H](C[C@]5(C=C[C@H](C)[C@@H](C6CCCCC6)O5)O4)OC(=O)[C@@H]4C=C(C)[C@@H](O)[C@H]5OC/C(=C\C=C\[C@@H]3C)[C@]54O)C[C@@H]2OC)O[C@@H](C)[C@@H]1O [Doramectin] | 96 | EC50 (read-out: EC 50): 12.8 µM; IC50 (read-out: IC50 Mean): 12.8 µM
CC[C@@]1(O)C(=O)OCc2c1cc1n(c2=O)Cc2c-1nc1ccccc1c2CCNC(C)C [Belotecan] |  | inhibition of spike-ACE2 binding in the screen: did not inhibit
OC(c1cc(C(F)(F)F)nc2c(C(F)(F)F)cccc12)C1CCCCN1 (centres unmarked) [Mefloquine] |  | % inhibition in first-round screen: 77%
CC[C@@]1(O)C(=O)OCc2c1cc1n(c2=O)Cc2cc3cc(O)ccc3nc2-1 [Hydroxycamptothecin] | 99 | 
CN1CCc2nc(C(=O)N[C@@H]3C[C@@H](C(=O)N(C)C)CC[C@@H]3NC(=O)C(=O)Nc3ccc(Cl)cn3)sc2C1 [Edoxaban] | 95 | 
CN(C)c1ccc(C(=C2C=CC(=[N+](C)C)C=C2)c2ccc(N(C)C)cc2)cc1 [Crystal Violet] | 98 | 
C[C@]12CC[C@@H]3c4ccc(OC(=O)c5ccccc5)cc4CC[C@H]3[C@@H]1CC[C@@H]2O [Estradiol benzoate] | 93 | 
COc1cc2nccc(Oc3ccc(NC(=O)NC4CC4)c(Cl)c3)c2cc1C(N)=O [Lenvatinib Mesylate] | 94 | 
COC(=O)N[C@H](C(=O)N1CCC[C@H]1c1nc(-c2ccc(-c3ccc(-c4c[nH]c([C@@H]5CCCN5C(=O)[C@@H](NC(=O)OC)C(C)C)n4)cc3)cc2)c[nH]1)C(C)C [Daclatasvir Dihydrochloride] | 97 | 
CNC(=O)c1cc(Oc2ccc(NC(=O)Nc3ccc(Cl)c(C(F)(F)F)c3)cc2)ccn1 [Sorafenib Tosylate] |  | % Inhibition, Screen: 21%
O=C(NC1CCN(CCCCC2(C(=O)NCC(F)(F)F)c3ccccc3-c3ccccc32)CC1)c1ccccc1-c1ccc(C(F)(F)F)cc1 [Lomitapide Mesylate] | 93 | 
CCOC(=O)c1c(N)sc2c1CCN(Cc1ccccc1)C2.Cl [Tinoridine Hydrochloride] | 90 | EC50 (read-out: EC50 (corrected)): 257 µM
CCOc1cc([C@@H](CS(C)(=O)=O)N2C(=O)c3cccc(NC(C)=O)c3C2=O)ccc1OC [Apremilast (CC-10004), Apremilast] | 96 | 
CC(=O)O[C@@]12CO[C@@H]1C[C@H](O)[C@@]1(C)C(=O)[C@H](O)C3=C(C)[C@@H](OC(=O)[C@H](O)[C@@H](NC(=O)OC(C)(C)C)c4ccccc4)C[C@@](O)([C@@H](OC(=O)c4ccccc4)[C@H]21)C3(C)C [Docetaxel Trihydrate] | 95 | 
CN(C)c1ccc2nc3ccc(=[N+](C)C)cc-3sc2c1 [Methylene Blue] |  | % inhibition in first-round screen: 44%
COc1cc(-c2coc3cc4c(c(OC)c3c2=O)OCO4)cc(OC)c1OC [Irisflorentin] | 97 | 
N#Cc1ccc2[nH]cc(CCCCN3CCN(c4ccc5oc(C(N)=O)cc5c4)CC3)c2c1 [Vilazodone HCl] | 99 | 
CC[C@H](C)C[C@H](C)CCCCCCCCC(=O)N[C@H]1C[C@@H](O)[C@@H](O)NC(=O)[C@@H]2[C@@H](O)CCN2C(=O)[C@H]([C@H](O)CC(N)=O)NC(=O)[C@H]([C@H](O)[C@@H](O)c2ccc(O)cc2)NC(=O)[C@@H]2C[C@@H](O)CN2C(=O)[C@H]([C@@H](C)O)NC1=O [Pneumocandin B0] ({Tetradecanoyl(10R,12S-Me2)}-[Orn(4R-OH,5R-OH)]T[Hyp][hTyr(3S-OH,4S-OH)][Gln(3R-OH)][Pro(3S-OH)]; lactam 1-C) | 98 | EC50 (read-out: EC50 (corrected)): 72.8 µM
N#Cc1nn(-c2c(Cl)cc(C(F)(F)F)cc2Cl)c(N)c1[S+]([O-])C(F)(F)F (centres unmarked) [Fipronil] | 91 | 

Compound | % Inhibition [%] | further results
CC[C@@]1(O)C(=O)OCc2c1cc1n(c2=O)Cc2cc3c(CN(C)C)c(O)ccc3nc2-1 [Topotecan] |  | inhibition of spike-ACE2 binding in the screen: did not inhibit
CO/N=C(\C(=O)N[C@@H]1C(=O)N2C(C(=O)OCOC(=O)C(C)(C)C)=C(/C=C\c3scnc3C)CS[C@H]12)c1csc(N)n1 [Cefditoren Pivoxil] | 96 | 
COc1cc([C@@H]2c3cc4c(cc3[C@@H](O[C@@H]3O[C@@H]5CO[C@@H](c6cccs6)O[C@H]5[C@H](O)[C@H]3O)[C@H]3COC(=O)[C@H]23)OCO4)cc(OC)c1O [Teniposide] | 97 | 
CO[C@H]1C[C@@H]2CC[C@@H](C)[C@@](O)(O2)C(=O)C(=O)N2CCCC[C@H]2C(=O)O[C@H]([C@H](C)C[C@@H]2CC[C@@H](OCCO)[C@H](OC)C2)CC(=O)[C@H](C)/C=C(\C)[C@@H](O)[C@@H](OC)C(=O)[C@H](C)C[C@H](C)/C=C/C=C/C=C/1C [Everolimus (RAD001), Everolimus] | 94 | 
Cn1cncc1[C@@](N)(c1ccc(Cl)cc1)c1ccc2c(c1)c(-c1cccc(Cl)c1)cc(=O)n2C [Tipifarnib] | 98 | 
C=CC(=O)Nc1cccc(Oc2nc(Nc3ccc(N4CCN(C)CC4)cc3)nc3ccsc23)c1 [Olmutinib] | 98 | 
Cc1ccc(NC(=O)c2ccc(CN3CCN(C)CC3)cc2)cc1Nc1nccc(-c2cccnc2)n1 [Imatinib] |  | inhibition of spike-ACE2 binding in the screen: failed to inhibit
C=C(NC(=O)C(=C)NC(=O)c1csc(C2=N[C@@H]3c4csc(n4)[C@H]4NC(=O)c5csc(n5)[C@H]([C@](C)(O)[C@@H](C)O)NC(=O)[C@H]5CSC(=N5)/C(=C/C)NC(=O)[C@H]([C@@H](C)O)NC(=O)c5csc(n5)[C@]3(CC2)NC(=O)[C@H](C)NC(=O)C(=C)NC(=O)[C@H](C)NC(=O)[C@H]([C@@H](C)CC)N[C@@H]2C=Cc3c([C@H](C)O)cc(nc3[C@H]2O)C(=O)O[C@@H]4C)n1)C(N)=O [Thiostrepton] | 99 | 
Cc1nc(Nc2ncc(C(=O)Nc3c(C)cccc3Cl)s2)cc(N2CCN(CCO)CC2)n1.Cl [Dasatinib HCl] | 98 | EC50 (read-out: EC50 (corrected)): 65.9 µM
Cc1cn(-c2cc(NC(=O)c3ccc(C)c(Nc4nccc(-c5cccnc5)n4)c3)cc(C(F)(F)F)c2)cn1 [Nilotinib AMN-107, Nilotinib] | 99 | 
Cefotiam Hexetil Hydrochloride | 99 | EC50 (read-out: EC50 (corrected)): 37.3 µM
CCc1c2c(nc3ccc(OC(=O)N4CCC(N5CCCCC5)CC4)cc13)-c1cc3c(c(=O)n1C2)COC(=O)[C@]3(O)CC [Irinotecan] |  | inhibition of spike-ACE2 binding in the screen: did not inhibit
CO[C@H]1C[C@@H]2CC[C@@H](C)[C@@](O)(O2)C(=O)C(=O)N2CCCC[C@H]2C(=O)O[C@H]([C@H](C)C[C@@H]2CC[C@@H](OC(=O)C(C)(CO)CO)[C@H](OC)C2)CC(=O)[C@H](C)/C=C(\C)[C@@H](O)[C@@H](OC)C(=O)[C@H](C)C[C@H](C)/C=C/C=C/C=C/1C [Temsirolimus (CCI-779, NSC 683864), Temsirolimus] | 96 | 
CCN(CC)Cc1cc(Nc2ccnc3cc(Cl)ccc23)ccc1O [Amodiaquine hydrochloride] | 90 | 
CC[C@@]1(O)C(=O)OCc2c1cc1n(c2=O)Cc2cc3cc(O)ccc3nc2-1 [S-(10)-hydroxycamptothecin, (S)-10-Hydroxycamptothecin] | 100 | 
COC(=O)N[C@H](C(=O)N1CCC[C@H]1c1nc(-c2ccc(-c3ccc(-c4c[nH]c([C@@H]5CCCN5C(=O)[C@@H](NC(=O)OC)C(C)C)n4)cc3)cc2)c[nH]1)C(C)C [Daclatasvir] | 99 | 
C[C@@H]1C[C@H]2[C@@H]3CCC4=CC(=O)C=C[C@]4(C)[C@@]3(Cl)[C@@H](O)C[C@]2(C)[C@@]1(OC(=O)c1ccco1)C(=O)CCl [Mometasone furoate] | 98 | 
CCCCCOc1ccc(-c2ccc(-c3ccc(C(=O)N[C@H]4C[C@@H](O)[C@@H](O)NC(=O)[C@@H]5[C@@H](O)[C@@H](C)CN5C(=O)[C@H]([C@@H](C)O)NC(=O)[C@H]([C@H](O)[C@@H](O)c5ccc(O)cc5)NC(=O)[C@@H]5C[C@@H](O)CN5C(=O)[C@H]([C@@H](C)O)NC4=O)cc3)cc2)cc1 [Anidulafungin] ({pTerphenylCO(4''-OnC5H11)}-[Orn(4R-OH,5R-OH)]T[Hyp][hTyr(3S-OH,4S-OH)]T[Pro(3S-OH,4S-Me)]; lactam 1-C) | 99 | 
O=C(O)CCCC[C@@H]1SC[C@@H]2NC(=O)N[C@@H]21 [Biotin (Vitamin B7), Biotin] | 91 | 
COc1cc([C@@H]2c3cc4c(cc3[C@H](O)[C@H]3COC(=O)[C@@H]23)OCO4)cc(OC)c1OC [Picropodophyllin] | 98 | 
O=C(O)c1cn(C2CC2)c2cc(N3CCNCC3)c(F)cc2c1=O [Ciprofloxacin Hydrochloride Hydrate] | 93 | 
C[C@@H](Oc1cc(-c2cnn(C3CCNCC3)c2)cnc1N)c1c(Cl)ccc(F)c1Cl [Crizotinib (PF-02341066), Crizotinib] |  | % Inhibition, Screen: 55%
CO[C@H]1C[C@@H]2CC[C@@H](C)[C@@](O)(O2)C(=O)C(=O)N2CCCC[C@H]2C(=O)O[C@H]([C@H](C)C[C@@H]2CC[C@H](n3cnnn3)[C@H](OC)C2)CC(=O)[C@H](C)/C=C(\C)[C@@H](O)[C@@H](OC)C(=O)[C@H](C)C[C@H](C)/C=C/C=C/C=C/1C [Zotarolimus(ABT-578), Zotarolimus] | 96 | 

From PMC8236845
